Measurements: patent US20030134848A1, “Substituted 1-aza-2-imino-heterocycles and their use as nicotinic acetylcholin receptors activators” (priority 2000, published 2003)
Where two headings read alike, the source gives them in different places.

How the values were obtained:
[1] = target: α1β1γδ subtype of nicotinic acetylcholine receptors (Rattus norvegicus, UniProt P18916+P25108+P25110); test: biochemical; assay type: binding; settings: for Ki: read-out: Affinities for receptors Ki α1β1γδ, rat muscle extract, [3H]-α-Bgt 1 nM; for remaining activity at 100 µM / remaining activity at 1000 µM: read-out: control % of [3H]-α-Bgt binding
α1β1γδ subtype of nicotinic acetylcholine receptors, sequence (P25109 24-501): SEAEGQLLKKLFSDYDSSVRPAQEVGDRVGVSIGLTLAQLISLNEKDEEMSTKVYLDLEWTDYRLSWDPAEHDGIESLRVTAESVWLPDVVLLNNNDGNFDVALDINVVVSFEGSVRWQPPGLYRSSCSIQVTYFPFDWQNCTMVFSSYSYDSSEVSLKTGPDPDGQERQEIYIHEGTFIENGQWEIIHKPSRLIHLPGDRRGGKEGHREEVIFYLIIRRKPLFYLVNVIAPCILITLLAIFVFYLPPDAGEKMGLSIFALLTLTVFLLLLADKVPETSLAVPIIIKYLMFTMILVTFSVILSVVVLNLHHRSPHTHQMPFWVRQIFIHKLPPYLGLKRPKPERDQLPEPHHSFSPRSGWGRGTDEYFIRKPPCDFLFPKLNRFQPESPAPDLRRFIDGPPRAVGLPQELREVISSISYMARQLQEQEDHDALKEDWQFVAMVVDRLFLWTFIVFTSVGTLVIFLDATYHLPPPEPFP
α1β1γδ subtype of nicotinic acetylcholine receptors, sequence (P25110 22-517): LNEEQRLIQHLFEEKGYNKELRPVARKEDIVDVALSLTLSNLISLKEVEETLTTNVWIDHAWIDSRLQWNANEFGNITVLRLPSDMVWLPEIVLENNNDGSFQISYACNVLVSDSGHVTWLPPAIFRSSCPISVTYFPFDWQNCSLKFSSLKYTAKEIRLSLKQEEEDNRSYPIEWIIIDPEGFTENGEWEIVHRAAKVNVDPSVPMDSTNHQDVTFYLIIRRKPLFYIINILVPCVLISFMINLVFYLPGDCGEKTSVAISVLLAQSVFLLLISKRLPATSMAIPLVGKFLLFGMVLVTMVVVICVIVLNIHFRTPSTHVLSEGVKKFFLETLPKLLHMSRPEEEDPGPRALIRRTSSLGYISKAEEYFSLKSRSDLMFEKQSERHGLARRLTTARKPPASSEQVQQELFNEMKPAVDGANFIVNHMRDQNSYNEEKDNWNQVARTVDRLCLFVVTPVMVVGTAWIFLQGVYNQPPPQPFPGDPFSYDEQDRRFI
α1β1γδ subtype of nicotinic acetylcholine receptors, sequence (P25108 21-457): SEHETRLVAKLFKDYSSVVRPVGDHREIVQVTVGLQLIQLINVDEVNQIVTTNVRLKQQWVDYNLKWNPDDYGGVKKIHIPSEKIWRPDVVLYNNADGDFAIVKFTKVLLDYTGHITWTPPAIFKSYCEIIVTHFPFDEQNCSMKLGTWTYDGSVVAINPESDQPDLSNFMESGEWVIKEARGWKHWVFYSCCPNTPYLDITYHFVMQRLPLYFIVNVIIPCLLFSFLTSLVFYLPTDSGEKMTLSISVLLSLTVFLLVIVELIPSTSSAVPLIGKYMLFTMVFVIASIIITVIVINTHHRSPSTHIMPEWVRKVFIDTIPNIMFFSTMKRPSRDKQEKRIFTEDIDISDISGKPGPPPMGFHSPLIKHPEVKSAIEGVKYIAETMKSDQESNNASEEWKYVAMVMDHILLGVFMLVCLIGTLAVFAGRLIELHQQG
α1β1γδ subtype of nicotinic acetylcholine receptors, sequence (P18916 23-519): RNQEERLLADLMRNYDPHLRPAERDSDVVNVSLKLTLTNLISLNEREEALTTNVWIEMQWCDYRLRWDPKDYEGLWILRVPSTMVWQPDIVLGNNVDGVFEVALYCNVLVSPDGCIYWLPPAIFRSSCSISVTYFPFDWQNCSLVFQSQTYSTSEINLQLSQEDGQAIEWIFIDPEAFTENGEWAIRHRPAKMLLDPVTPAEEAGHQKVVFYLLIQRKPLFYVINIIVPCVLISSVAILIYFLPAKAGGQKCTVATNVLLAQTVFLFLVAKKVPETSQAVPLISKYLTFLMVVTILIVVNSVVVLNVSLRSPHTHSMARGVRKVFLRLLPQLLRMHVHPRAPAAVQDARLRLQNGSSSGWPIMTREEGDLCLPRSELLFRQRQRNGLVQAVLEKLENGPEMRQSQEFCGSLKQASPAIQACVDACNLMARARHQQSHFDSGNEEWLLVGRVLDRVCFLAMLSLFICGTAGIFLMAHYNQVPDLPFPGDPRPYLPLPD
From the text: (§1) The methods for evaluating the binding capabilities of the compounds at nicotinic acetylcholine receptors are different by subtypes of receptors. The binding capabilities of the compounds at α4β2 nicotinic acetylcholine receptors are examined using rat brain membrane obtained from whole homogenized brain, and determining the inhibiting rate of the compounds against [^3H]-cytisine binding to said brain membrane. Furthermore, the binding capabilities of the compounds at α1β1γδ nicotinic acetylcholine receptors are examined using homogenized rat muscle, and determining the inhibiting rate of the compounds against [^3H]-α-bungarotoxin binding to said muscle homogenate.
The affinity of the compounds of the present invention to α1β1γδ subtype of nicotinic acetylcholine receptors was measured by the following method, which was modified method described by Garcha H. S., Thomas P., Spivak C. E., Wonnacott S. & Stolerman I. P., Psychropharmacology, 110, 347-354 (1993).
(1) Preparation of Rat Skeletal Muscles Containing α1β1γδ Subtype of Nicotinic Acetylcholine Receptors
The substantially same animals described in the Biological Experiment 1 were used.
The isolation of α1β1γδ subtype of nicotinic acetylcholine receptors was performed as follow. That is, rat posterior skeletal muscles were isolated just after sacrificed by decapitation, washed with ice-cooled saline solution and then frozen at −80° C. with liquid nitrogen and stored till using. After thawing the frozen muscles, tissue was homogenized (40% w/v) with buffer solution [2.5 mM of sodium phosphate buffer (pH:7.2), 90 mM of NaCl, 2 mM of KCl, 1 mM of EDTA, 2 mM of benzamidine, 0.1 mM of benzethonium chloride, 0.1 mM of PMSF, 0.01% of sodium azide] in Waring blender (Waring blender 34BL97; WARING PRODUCTS DIVISION DYNAMICS CORPORATION OF AMERICA) for 60 seconds. The homogenate were centrifuged under 20,000×G for 60 minutes at 4° C. The supernatant was separated and the resulting pellet was added to the same buffer (1.5 ml/g wet weight), and homogenized under the same conditions. Triton X100 (2% w/v) was added and the mixture was stirred for 3 hours at 4° C. The centrifugation at 100,000×G for 60 minutes at 4° C. yielded the rat muscle extract as supernatant. This was stored at 4° C. for up to 4 weeks, and used for binding assays at receptors.
(2) Experiments of α1β1γδ Subtype of Nicotinic Acetylcholine Receptors Binding
Receptors binding experiments were performed as follow. That is, the extract of rat muscle containing 600-900 μg of protein was added to test tubes containing test compounds and incubated for 15 minutes at 37° C. Then, to this mixture was added 1 nM of [^3H]-α-bungarotoxin (α-Bgt) and further incubated for 2 hours. The samples were isolated by vacuum filtration onto Whatman GF/B filters, which were prerinsed with 0.5% polyethylenimine just prior to sample filtration, using Brandel multi manifold cell harvester. The filters were rapidly rinsed with washing solution (10 mM of KH2PO4, 150 mM of NaCl, pH 7.2, room temperature) (5×1 ml). The filters were counted in 3 ml of clearsol I (Nacalai Tesque Inc.). The determination of nonspecific binding was incubated in the presence of 1 μM α-Bgt. The solutions containing α-Bgt (labeled/non-labeled) were prepared by using buffer solution containing 0.25% of BSA. In the receptor binding experiments, said buffer solution was added for adjusting the final concentration of BSA to be 0.05%.
The analyses of the experimental results were conducted by the same way as described in the Biological Experiment 1.

[2] = target: T1, α4β2 subtype of nicotinic acetylcholine receptors (Rattus norvegicus, UniProt P09483+P12390); test: Binding assay at α4β2 subtype of nicotinic acetylcholine receptors ([3H]-cytisine, rat brain membrane); settings: for remaining activity at 1 µM / remaining activity at 10 µM: read-out: control % of [3H]-cytisine binding
T1 construct: rat brain membrane obtained from whole homogenized brain; from tissue; host or cells: whole brain of Fischer-344 male rats, membrane fraction
T1 sequence (P09483 31-630): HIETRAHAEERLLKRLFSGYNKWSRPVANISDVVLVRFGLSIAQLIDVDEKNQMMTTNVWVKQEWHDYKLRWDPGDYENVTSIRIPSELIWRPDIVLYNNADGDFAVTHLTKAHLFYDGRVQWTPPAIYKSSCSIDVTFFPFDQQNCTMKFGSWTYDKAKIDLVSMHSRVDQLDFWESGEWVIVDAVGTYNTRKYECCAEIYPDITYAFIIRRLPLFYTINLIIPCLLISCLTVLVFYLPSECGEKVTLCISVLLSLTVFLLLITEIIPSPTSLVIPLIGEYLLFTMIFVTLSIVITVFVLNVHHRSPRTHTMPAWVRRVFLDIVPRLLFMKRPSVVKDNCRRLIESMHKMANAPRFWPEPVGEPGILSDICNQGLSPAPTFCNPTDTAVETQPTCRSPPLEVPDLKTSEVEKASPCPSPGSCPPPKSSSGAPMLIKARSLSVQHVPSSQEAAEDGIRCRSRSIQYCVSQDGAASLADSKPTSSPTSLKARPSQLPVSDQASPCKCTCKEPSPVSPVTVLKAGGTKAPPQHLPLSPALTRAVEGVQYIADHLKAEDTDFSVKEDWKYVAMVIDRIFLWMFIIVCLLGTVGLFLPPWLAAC
T1 sequence (P12390 25-500): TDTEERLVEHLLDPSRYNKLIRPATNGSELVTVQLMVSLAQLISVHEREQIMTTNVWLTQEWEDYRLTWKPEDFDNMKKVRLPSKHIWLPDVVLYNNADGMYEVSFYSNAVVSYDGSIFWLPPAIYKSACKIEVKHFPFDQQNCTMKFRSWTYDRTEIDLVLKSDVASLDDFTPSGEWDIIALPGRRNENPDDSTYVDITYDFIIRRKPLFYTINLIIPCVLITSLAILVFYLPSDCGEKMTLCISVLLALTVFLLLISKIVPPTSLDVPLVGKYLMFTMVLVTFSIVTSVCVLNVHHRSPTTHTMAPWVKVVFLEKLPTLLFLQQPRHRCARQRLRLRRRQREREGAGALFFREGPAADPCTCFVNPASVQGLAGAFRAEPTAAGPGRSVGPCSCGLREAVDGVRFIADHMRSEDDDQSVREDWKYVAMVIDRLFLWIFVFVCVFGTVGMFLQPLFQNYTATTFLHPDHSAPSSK
From the text: as §1
The affinity of the compounds of the present invention to α4β2 subtype of nicotinic acetylcholine receptors was performed by the following method, which was modified method described by Pabreza L. A., Dhawan S. & Kellar K. J., Mol. Pharm., 39, 9-12 (1990), and by Anderson D. J. & Arneric S. P., Eur. J. Pharm., 253, 261-267 (1994).
(1) Preparation of Rat Brain Membrane Containing α4β2 Subtype of Nicotinic Acetylcholine Receptors
Fischer-344 strain male rats (body weight: 200-240 g; 9 weeks old) obtained from Charles River Japan were used. Rats were housed in the breeding cage controlled of the room temperature at 23±1° C., and the humidity of 55±5% for 1 to 4 weeks. Rats (3 to 4 rats per a cage) were housed with lights on for 12 hours daily (from 7:00 to 19:00), and allowed free access to food and water.
Preparation of rat brain membrane containing α4β2 subtype of nicotinic acetylcholine receptors was performed as follow. That is, rat brains were isolated just after sacrificed by decapitation, washed with ice-cooled saline solution and then frozen at −80° C. with liquid nitrogen and stored till using. After thawing the frozen brain, the brain was homogenized in 10 volumes of ice-cooled buffer solution (50 mM of Tris-HCl, 120 mM of NaCl, 5 mM of KCl, 1 mM of MgCl2, 2 mM of CaCl2; pH 7.4; 4° C.) using homogenizer (HG30, Hitachi Kohki Ltd.) for 30 seconds, and the homogenate were centrifuged under 1,000×G for 10 minutes at 4° C. The resulting supernatant was separated and the pellet was homogenized again with half volume of aforementioned prior buffer solution and centrifuged under the same conditions. Combined supernatant was further centrifuged under 40,000×G for 20 minutes at 4° C. The pellet was suspended in buffer solution and used for binding assays at receptors.
(2) Experiments of α4β2 Subtype of Nicotinic Acetylcholine Receptors Binding
Suspensions of membrane pellets containing 400-600 μg of protein were added to test tubes containing test compounds and [^3H]-cytisine (2 nM) in a final volume of 200 μl and incubated for 75 minutes in ice-cooled bath. The samples were isolated by vacuum filtration onto Whatman GF/B filters, which were prerinsed with 0.5% polyethylenimine just prior to sample filtration, using Brandel multi manifold cell harvester. The filters were rapidly washed with buffer solution (3×1 ml). The filters were counted in 3 ml of clearsol I (Nacalai Tesque Inc.).
The analyses of the experimental results were conducted by using the Accufit Competition Program (Beckman Ltd.).

[3] = 1 μM of test compound, rat brain membrane
[4] = 10 μM of test compound, rat brain membrane

SMILES	Ki [1] [µM]	Ki [2] [µM]	remaining activity at 100 µM [1] [%]	remaining activity at 1000 µM [1] [%]	remaining activity at 1 µM [2, 3] [%]	remaining activity at 10 µM [2, 4] [%]	further results
Cc1csc(=N)n1CCc1ccc(Cl)nc1 [Compound 4, 3-[2-(6-chloro-3-pyridyl)ethyl]-2-imino-4-methyl-2,3-dihydrothiazole]	10	0.0056					
N=C1SCCN1CC(O)c1ccc(Cl)nc1 (centres unmarked) [Compound 9, 1-(6-Chloro-3-pyridyl)-2-(2-imino-3-thiazolidinyl)-1-ethanol]			72	35			remaining activity at 1 µM [2]: 97%; remaining activity at 10 µM [2]: 43%
N=c1sccn1CCc1cnc(Cl)s1 [Compound 24, 3-[2-(2-chloro-5-thiazolyl)ethyl]-2-imino-2,3-dihydrothiazole]	58	0.035					
Nc1nccn1CCc1ccccn1 [Compound 19, 2-amino-1-[2-(2-pyridyl)ethyl]imidazole]			106	86	103	106	
N=c1ccc(Cl)nn1CCc1ccc(Cl)nc1 [Compound 15, 6-chloro-2-[2-(6-chloro-3-pyridyl)ethyl]-3-imino-2,3-dihydropyridazine]			93	61			remaining activity at 1 µM [2]: 60%; remaining activity at 10 µM [2]: 12%
COc1ccc(Sc2ccccc2CCn2ccnc2N)cc1 [Compound 33, 2-amino-1-{2-[2-(4-methoxyphenyl)thiophenyl]ethyl}-imidazole]			119	85	111	92	
Nc1nccn1CCc1ccc(Cl)cc1 [Compound 17, 2-amino-1-[2-(4-chlorophenyl)ethyl]imidazole]			83	67	97	78	
N=c1sccn1CCc1ccc(Cl)nc1 [Compound 22, 3-[2-(6-chloro-3-pyridyl)ethyl]-2-imino-2,3-dihydrothiazole]	132	0.0074					
Nc1nccn1CCc1ccc(O)cc1 [Compound 26, 2-amino-1-[2-(4-hydroxyphenyl)ethyl]imidazole]			81	50	93	60	
N=c1ccccn1CCc1ccc(Cl)nc1 [Compound 16, 1-[2-(6-chloro-3-pyridyl)ethyl]-2-imino-1,2-dihydropyridine]	227	0.061					
Nc1nccn1CCc1ccccc1Sc1ccc(O)cc1 [Compound 32, 2-amino-1-{2-[2-(4-hydroxyphenyl)thiophenyl]ethyl}-imidazole]			107	81	102	73	
Cc1cn(CCc2ccc(Cl)nc2)c(=N)s1 [Compound 6, 3-[2-(6-chloro-3-pyridyl)ethyl]-2-imino-5-methyl-2,3-dihydro-thiazole]			82	61			remaining activity at 1 µM [2]: 77%; remaining activity at 10 µM [2]: 35%
Cc1sc(=N)n(CCc2ccc(Cl)nc2)c1C [Compound 10, 3-[2-(6-chloro-3-pyridyl)ethyl]-2-imino-4,5-dimethyl-2,3-dihydrothiazole]	215	0.051					
N=C1SCCN1CC(=O)c1ccccc1 [Compound 1, 2-imino-3-phenacylthiazolidine]					93	68	
Cc1cncc(CCn2ccsc2=N)c1 [Compound 28, 2-imino-3-[2-(5-methyl-3-pyridyl)ethyl]-2,3-dihydrothiazole]	94						Ki ([2]; rat brain membrane, [3H]-cytisine 2 nM, read-out: Affinities for receptors Ki α4β2): 0.027 µM
CC(=O)Cn1ccsc1=N [Compound 2, 3-acetonyl-2-imino-2,3-dihydrothiazole]					107	101	
Nc1nccn1CCc1ccncc1 [Compound 20, 2-amino-1-[2-(4-pyridyl)ethyl]imidazole]			109	90	97	95	
Cc1nc(N)n(CCc2ccc(Cl)nc2)c1C [Compound 21, 2-amino-1-[2-(6-chloro-3-pyridyl)ethyl]-4,5-dimethylimidazole]	175	0.097					
Nc1nccn1CCc1ccc(Cl)nc1 [Compound 7, 2-amino-1-[2-(6-chloro-pyridyl)ethyl]imidazole]	184	0.0049					
Nc1nccn1CCc1cncnc1Cl [Compound 35, 2-amino-1-[2-(4-chloro-5-pyrimidyl)ethyl]imidazole]			87	49			remaining activity at 1 µM [2]: 61%; remaining activity at 10 µM [2]: 17%
N=C1SCCN1CC(=O)c1ccc(Cl)nc1 [Compound 8, 1-(6-chloro-3-pyridyl)-2-(2-imino-3-thiazolidinyl)-1-ethanone]	1830	0.062					
N=C1SCCN1CCc1ccc(Cl)nc1 [Compound 5, 3-[2-(6-chloro-3-pyridyl)ethyl]-2-iminothiazolidine]	34	0.0048					
N=c1ncccn1CCc1ccc(Cl)nc1 [Compound 3, 1-[2-(6-chloro-3-pyridyl)ethyl]-2-imino-1,2-dihydropyrimidine]			72	39			remaining activity at 1 µM [2]: 72%; remaining activity at 10 µM [2]: 17%
CC(Cn1ccsc1=N)c1ccc(Cl)nc1 (centres unmarked) [Compound 18, 3-[2-(6-chloro-3-pyridyl)propyl]-2-imino-2,3-dihydrothiazole]	173	0.084					
CN1CCCC1c1cccnc1 (single isomer, unassigned; (-)) [Nicotine, (−)-nicotine, reference compound]	182						
